A word on the IC50: it is the point on the concentration scale where inhibition reaches its midpoint.

The structures appear in SMILES notation.

Data set [1] addresses T1, Steroid hormone receptor ERR1 (Homo sapiens, UniProt P11474).
T1 sequence (P11474 whole entry): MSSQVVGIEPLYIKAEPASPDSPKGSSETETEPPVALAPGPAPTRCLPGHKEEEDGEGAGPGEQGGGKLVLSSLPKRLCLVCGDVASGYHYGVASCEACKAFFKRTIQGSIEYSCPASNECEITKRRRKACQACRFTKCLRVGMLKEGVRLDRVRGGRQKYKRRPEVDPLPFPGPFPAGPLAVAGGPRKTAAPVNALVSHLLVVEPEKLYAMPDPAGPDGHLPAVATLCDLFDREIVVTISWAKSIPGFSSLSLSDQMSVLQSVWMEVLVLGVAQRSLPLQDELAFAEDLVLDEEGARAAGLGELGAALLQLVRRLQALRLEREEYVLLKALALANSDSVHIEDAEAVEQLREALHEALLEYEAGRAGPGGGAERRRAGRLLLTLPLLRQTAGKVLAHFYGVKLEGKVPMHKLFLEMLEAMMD
Description: Antagonist activity at His6-tagged ERRalpha LBD (unknown origin) assessed as inhibition of GST-tagged SRC-2 co-activator peptide recruitment after 18 hrs by TR-FRET assay.

The subject of data set [2] is Rattus norvegicus. Description: Decrease in fed plasma insulin level in Zucker rat sub-chronic fa/fa prediabetic model assessed as change in plasma insulin level at 10 mg/kg, po qd for 4 days measured on day 5 relative to control. The format is functional. Also on record: scale not given: the % may be the effect or the level left.
Data set [3] concerns Rattus norvegicus. The experiment in a line: Decrease in fed plasma triglyceride level in Zucker rat sub-chronic fa/fa prediabetic model assessed as change in plasma triglyceride level at 10 mg/kg, po qd for 4 days measured on day 5 relative to control. The data set is classed as functional. Set-up: scale not given: the % may be the effect or the level left.
For data set [4], the target named is Voltage-gated inwardly rectifying potassium channel KCNH2 (Homo sapiens, UniProt Q12809). The experiment in a line: Displacement of [3H]astemizole from human ERG. The note with it: for inhibition (INH): human. For orientation: In a radioligand displacement assay an active substance lowers the binding of a labelled ligand.
Chain of Voltage-gated inwardly rectifying potassium channel KCNH2 (Q12809 whole entry): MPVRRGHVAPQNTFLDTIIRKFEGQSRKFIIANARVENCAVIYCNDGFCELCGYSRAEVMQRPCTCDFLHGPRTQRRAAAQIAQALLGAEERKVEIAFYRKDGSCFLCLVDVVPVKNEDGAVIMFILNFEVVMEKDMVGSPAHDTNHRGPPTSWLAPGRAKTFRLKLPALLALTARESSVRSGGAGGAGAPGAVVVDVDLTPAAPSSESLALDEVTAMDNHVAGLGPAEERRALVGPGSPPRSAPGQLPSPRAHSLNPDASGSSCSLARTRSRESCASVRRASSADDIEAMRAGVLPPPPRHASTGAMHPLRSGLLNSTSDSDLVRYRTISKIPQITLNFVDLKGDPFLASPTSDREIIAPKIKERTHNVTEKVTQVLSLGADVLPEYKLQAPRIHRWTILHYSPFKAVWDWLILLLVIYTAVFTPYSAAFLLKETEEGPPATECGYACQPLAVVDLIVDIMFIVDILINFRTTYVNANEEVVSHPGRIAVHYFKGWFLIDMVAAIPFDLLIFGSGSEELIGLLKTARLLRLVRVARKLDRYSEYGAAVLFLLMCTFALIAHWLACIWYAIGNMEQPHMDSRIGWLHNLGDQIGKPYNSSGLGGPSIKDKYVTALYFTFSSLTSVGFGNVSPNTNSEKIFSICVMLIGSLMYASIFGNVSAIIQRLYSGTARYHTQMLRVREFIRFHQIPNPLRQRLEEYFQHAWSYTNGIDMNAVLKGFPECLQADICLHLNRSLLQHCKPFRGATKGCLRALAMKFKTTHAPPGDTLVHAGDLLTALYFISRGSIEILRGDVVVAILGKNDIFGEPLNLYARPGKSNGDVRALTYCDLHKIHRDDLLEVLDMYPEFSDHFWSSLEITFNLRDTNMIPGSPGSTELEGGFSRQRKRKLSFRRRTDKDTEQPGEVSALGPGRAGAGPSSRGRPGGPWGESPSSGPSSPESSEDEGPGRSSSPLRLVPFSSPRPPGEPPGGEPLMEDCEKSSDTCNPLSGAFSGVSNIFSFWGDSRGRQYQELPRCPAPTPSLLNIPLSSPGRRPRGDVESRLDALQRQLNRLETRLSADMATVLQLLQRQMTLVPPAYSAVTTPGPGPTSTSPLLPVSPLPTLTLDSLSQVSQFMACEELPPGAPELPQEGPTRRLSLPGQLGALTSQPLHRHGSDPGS
A short description of data set [5]: Drug uptake in Sprague-Dawley rat plasma at 10 mg/kg, po via gavage by LC-MS analysis. The note with it: in vivo. The data set is classed as ADME, organism-based.
The target in a further data set is Cytochrome P450 3A4 (Homo sapiens, UniProt P08684). The experiment in a line: Inhibition of CYP3A4 (unknown origin) in microsomes. The data set is classed as ADME.
Chain of Cytochrome P450 3A4 (P08684 whole entry): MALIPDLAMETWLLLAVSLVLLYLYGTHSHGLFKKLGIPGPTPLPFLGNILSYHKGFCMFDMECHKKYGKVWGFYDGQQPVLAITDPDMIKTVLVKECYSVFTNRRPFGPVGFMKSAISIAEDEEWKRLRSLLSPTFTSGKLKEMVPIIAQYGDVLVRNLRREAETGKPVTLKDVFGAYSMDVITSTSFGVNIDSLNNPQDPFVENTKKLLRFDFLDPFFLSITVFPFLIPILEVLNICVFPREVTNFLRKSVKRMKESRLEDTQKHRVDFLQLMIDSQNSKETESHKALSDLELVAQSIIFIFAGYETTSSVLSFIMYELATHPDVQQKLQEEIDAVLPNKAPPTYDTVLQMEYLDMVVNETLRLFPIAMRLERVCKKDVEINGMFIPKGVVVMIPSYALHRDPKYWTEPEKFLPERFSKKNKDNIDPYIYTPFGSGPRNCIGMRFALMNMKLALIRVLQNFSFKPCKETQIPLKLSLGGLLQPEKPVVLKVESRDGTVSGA
Another data set has as its target Cytochrome P450 2C19 (Homo sapiens, UniProt P33261). The experiment in a line: Inhibition of CYP2C19 (unknown origin) in microsomes. The data set is classed as ADME.
For a further data set, the target named is Cytochrome P450 2C9 (Homo sapiens, UniProt P11712). The experiment in a line: Inhibition of CYP2C9 (unknown origin) in microsomes. The format is ADME.
Chain of Cytochrome P450 2C9 (P11712 whole entry): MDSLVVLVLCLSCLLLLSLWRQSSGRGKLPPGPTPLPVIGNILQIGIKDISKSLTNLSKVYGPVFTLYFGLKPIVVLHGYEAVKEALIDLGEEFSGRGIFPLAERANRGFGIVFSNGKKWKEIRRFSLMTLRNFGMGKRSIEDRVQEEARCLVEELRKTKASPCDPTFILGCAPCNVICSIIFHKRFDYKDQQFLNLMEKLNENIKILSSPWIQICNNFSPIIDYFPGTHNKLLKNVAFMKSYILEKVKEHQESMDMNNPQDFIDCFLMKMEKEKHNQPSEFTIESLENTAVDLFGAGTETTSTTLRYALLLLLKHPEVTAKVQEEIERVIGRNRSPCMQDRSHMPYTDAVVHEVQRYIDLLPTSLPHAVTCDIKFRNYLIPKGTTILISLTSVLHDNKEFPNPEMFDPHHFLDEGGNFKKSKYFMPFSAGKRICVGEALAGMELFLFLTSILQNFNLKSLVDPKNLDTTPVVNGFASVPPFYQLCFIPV

Chain of Cytochrome P450 2C19 (P33261 whole entry): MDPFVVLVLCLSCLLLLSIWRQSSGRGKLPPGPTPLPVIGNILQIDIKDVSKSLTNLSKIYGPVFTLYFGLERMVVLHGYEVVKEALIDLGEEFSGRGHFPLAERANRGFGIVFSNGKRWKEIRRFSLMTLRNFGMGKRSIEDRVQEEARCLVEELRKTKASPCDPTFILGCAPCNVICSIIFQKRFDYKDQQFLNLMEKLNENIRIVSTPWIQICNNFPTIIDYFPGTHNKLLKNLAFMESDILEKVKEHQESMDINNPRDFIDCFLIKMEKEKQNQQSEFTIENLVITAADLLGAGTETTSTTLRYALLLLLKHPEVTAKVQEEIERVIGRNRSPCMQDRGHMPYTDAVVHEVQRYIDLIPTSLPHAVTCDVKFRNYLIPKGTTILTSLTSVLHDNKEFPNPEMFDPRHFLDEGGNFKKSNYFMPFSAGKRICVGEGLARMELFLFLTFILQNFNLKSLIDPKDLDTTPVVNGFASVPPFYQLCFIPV

With `CS(=O)(=O)NC(=O)CN1C(=O)S/C(=C\c2ccc3c(cnn3Cc3ccc(Cl)cc3C(F)(F)F)c2)C1=O`, the half-maximal inhibitory concentration (IC50) in data set [1] was 18 nM. For the same compound, the Activity in the data set with Rattus norvegicus [2] is -14%; with Rattus norvegicus [3], 13%.
For `CC(=O)NS(=O)(=O)CN1C(=O)S/C(=C\c2ccc3c(cnn3Cc3ccc(Cl)cc3C(F)(F)F)c2)C1=O` the same measures were 8 nM, -58% and -37%.
For the compound `O=C1S/C(=C\c2ccc3c(cnn3Cc3ccc(Cl)cc3C(F)(F)F)c2)C(=O)N1CCN1CCCC1`, the IC50 in data set [1] was 17 nM. The Activity is -49% with Rattus norvegicus [2] and -30% in the data set with Rattus norvegicus [3]. In addition, the “inhibition (INH)” value in data set [4] is recorded as “Active”. The compound also showed a Cp in data set [5] below 100 ng/mL.
`O=C(CN1C(=O)S/C(=C\c2ccc3c(cnn3Cc3ccc(Cl)cc3C(F)(F)F)c2)C1=O)NS(=O)(=O)N1CCCC1`: the IC50 in data set [1] came to 25 nM. The figures for the Activity in the data set with Rattus norvegicus [2] and in the data set with Rattus norvegicus [3] were -47% and 1%, respectively. The Drug uptake entry in data set [5] is on record as “Active”.
Consider `O=C(O)C1CCC(N2C(=O)S/C(=C\c3ccc4c(cnn4Cc4ccc(Cl)cc4C(F)(F)F)c3)C2=O)CC1` (stereo not drawn), for which the IC50 in data set [1] is 12 nM. Moreover, the Activity in the data set on Rattus norvegicus [2] is recorded as -30%; in the data set with Rattus norvegicus [3], -19%.
On to `O=C1S/C(=C\c2ccc3c(cnn3Cc3ccc(Cl)cc3C(F)(F)F)c2)C(=O)N1C1CCN(CCO)CC1`, for which the IC50 in data set [1] was 15 nM. The values for the Activity with Rattus norvegicus [2] and with Rattus norvegicus [3] were -77% and -40%, respectively. In data set [4], the “inhibition (INH)” value is on record as “Active”.
Take `N[C@@H](CO)CN1C(=O)S/C(=C\c2ccc3c(cnn3Cc3ccc(Cl)cc3C(F)(F)F)c2)C1=O`: in data set [1], the IC50 came to 23 nM. In addition, the figures for the Activity with Rattus norvegicus [2] and with Rattus norvegicus [3] were -33% and -45%, respectively. In addition, the “inhibition (INH)” value in data set [4] was “Active”. Moreover, the Cp in data set [5] was below 100 ng/mL.
Consider `O=C1S/C(=C\c2ccc3c(cnn3Cc3ccc(C(F)(F)F)cc3C(F)(F)F)c2)C(=O)N1CCN1CCCC1`, for which the half-maximal inhibitory concentration (IC50) in data set [1] was 580 nM.
In the case of `Cc1nn(Cc2ccc(Cl)cc2C(F)(F)F)c2ccc(/C=C3\SC(=O)N(CC(=O)O)C3=O)cc12`, in data set [1], the 50% inhibitory concentration (IC50) worked out at 28 nM. In addition, the Activity was -18% with Rattus norvegicus [2] and -4% in the data set on Rattus norvegicus [3].
As to `CN1CC[C@@H](N2C(=O)S/C(=C\c3ccc4c(cnn4Cc4ccc(Cl)cc4C(F)(F)F)c3)C2=O)[C@H](O)C1` (relative stereo), in data set [1], the IC50 turned out to be 23 nM. Also, the “inhibition (INH)” value in data set [4] is given as “Active”.
In the case of `CN1CCC(N2C(=O)S/C(=C\c3ccc4c(cnn4Cc4ccc(Cl)cc4C(F)(F)F)c3)C2=O)CC1`, at Cytochrome P450 3A4, the “inhibition (INH)” value is on record as “Active”. For the same compound, in data set [1], the concentration for half-maximal inhibition (IC50) was determined as 19 nM.
Turning to `COc1ccc(Cn2ncc3cc(/C=C4\SC(=O)N(CCN5CCOCC5)C4=O)ccc32)c(C(F)(F)F)c1`, in data set [1], the IC50 worked out at 8 nM. Further, the Activity in the data set with Rattus norvegicus [2] is -21%; in the data set on Rattus norvegicus [3], -19%.
As for `O=C1S/C(=C\c2ccc3c(cnn3Cc3ccc(Cl)cc3C(F)(F)F)c2)C(=O)N1C[C@H]1COCCN1`, the IC50 in data set [1] worked out at 15 nM. In addition, the Activity with Rattus norvegicus [2] was -52%; in the data set on Rattus norvegicus [3], -61%. The “inhibition (INH)” value in data set [4] is recorded as “Active”. In data set [5], this compound returned a Cp below 100 ng/mL.
As for `Cc1nn(Cc2ccc(Cl)cc2C(F)(F)F)c2ccc(/C=C3\SC(=O)N(CC(=O)NS(=O)(=O)N4CCCC4)C3=O)cc12`, in data set [1], the concentration for half-maximal inhibition (IC50) turned out to be 54 nM. In addition, the results for the Activity with Rattus norvegicus [2] and in the data set on Rattus norvegicus [3] were -10% and -23%, respectively. For the same compound, the Drug uptake result in data set [5] is reported as “Active”.
Consider `C[C@H](N)CN1C(=O)S/C(=C\c2ccc3c(cnn3Cc3ccc(Cl)cc3C(F)(F)F)c2)C1=O`, for which, in data set [1], the half-inhibitory concentration (IC50) is 24 nM. Further, the Activity was -60% in the data set on Rattus norvegicus [2] and -55% in the data set with Rattus norvegicus [3]. The compound also gave a Cp in data set [5] below 100 ng/mL.
Consider `O=C(O)CN1C(=O)S/C(=C\c2ccc3c(cnn3Cc3ccc(Cl)cc3C(F)(F)F)c2)C1=O`, for which, in data set [1], the half-maximal inhibitory concentration (IC50) is 9 nM. The Activity in the data set on Rattus norvegicus [2] is given as -50%; with Rattus norvegicus [3], -14%.
In the case of `O=C1S/C(=C\c2ccc3c(cnn3Cc3ccc(Cl)cc3C(F)(F)F)c2)C(=O)N1CCN1CCOCC1`, the half-maximal inhibitory concentration (IC50) in data set [1] was 43 nM.
On to `O=C1S/C(=C\c2ccc3c(cnn3Cc3ccc(Cl)cc3C(F)(F)F)c2)C(=O)N1C1CCNCC1`, for which the “inhibition (INH)” value at Cytochrome P450 2C19, at Cytochrome P450 3A4 and at Cytochrome P450 2C9 was “Active” throughout. Moreover, the IC50 in data set [1] was determined as 16 nM.
As to `NS(=O)(=O)NC(=O)CN1C(=O)S/C(=C\c2ccc3c(cnn3Cc3ccc(Cl)cc3C(F)(F)F)c2)C1=O`, in data set [1], the IC50 is 19 nM. Besides, the Activity with Rattus norvegicus [2] is recorded as -51%; in the data set with Rattus norvegicus [3], -14%.
Regarding `O=C(O)CN1C(=O)S/C(=C\c2ccc3c(cnn3Cc3ccc(C(F)(F)F)cc3C(F)(F)F)c2)C1=O`, the IC50 in data set [1] is 26 nM.
Take `O=C1S/C(=C\c2ccc3c(cnn3Cc3ccc(Cl)cc3C(F)(F)F)c2)C(=O)N1Cc1nnn[nH]1`: the IC50 in data set [1] amounted to 13 nM. Also, the Activity with Rattus norvegicus [2] is reported as -44%; with Rattus norvegicus [3], -51%.
In the same order, the values of `COc1ccc(Cn2ncc3cc(/C=C4\SC(=O)N(CC(=O)O)C4=O)ccc32)c(C(F)(F)F)c1` are 9 nM, -9% and 21%.
For `CN(C)S(=O)(=O)NC(=O)CN1C(=O)S/C(=C\c2ccc3c(cnn3Cc3ccc(Cl)cc3C(F)(F)F)c2)C1=O` the same measures were 23 nM, -29% and -46%.
On to `O=C1S/C(=C\c2ccc3c(cnn3Cc3ccc(Cl)cc3C(F)(F)F)c2)C(=O)N1[C@@H]1CCNC[C@H]1O` (relative stereo), for which, in data set [1], the IC50 came to 25 nM. In addition, the “inhibition (INH)” value in data set [4] was “Active”.
For the compound `CN1CCC[C@H]1CN1C(=O)S/C(=C\c2ccc3c(cnn3Cc3ccc(Cl)cc3C(F)(F)F)c2)C1=O`, the IC50 in data set [1] was 5 nM. Besides, the values for the Activity in the data set with Rattus norvegicus [2] and in the data set on Rattus norvegicus [3] were -59% and -37%, respectively. The Cp in data set [5] is below 100 ng/mL.
For the compound `COc1ccc(Cn2ncc3cc(/C=C4\SC(=O)N(C5CCC(C(=O)O)CC5)C4=O)ccc32)c(C(F)(F)F)c1` (stereo not drawn), the Activity with Rattus norvegicus [2] was -11%; in the data set on Rattus norvegicus [3] it was 32%.
For the compound `COc1ccc(Cn2ncc3cc(/C=C4\SC(=O)N(CCN5CCCC5)C4=O)ccc32)c(C(F)(F)F)c1`, in data set [1], the IC50 worked out at 46 nM.
For `O=C1S/C(=C\c2ccc3c(cnn3Cc3ccc(Cl)cc3C(F)(F)F)c2)C(=O)N1[C@@H]1CCNC[C@H]1F` (relative stereo), the results for the half-maximal inhibitory concentration (IC50) in data set [1] and in data set [4] were 34 nM and 21000 nM, respectively.

The record behind these values is ChEMBL document CHEMBL4130359, “Indazole-based ligands for estrogen-related receptor α as potential anti-diabetic agents” (Eur J Med Chem, 2017).
